We go through two compounds from US10189782B2, “Derivatives of indole for the treatment of cancer, viral infections and lung diseases” (BIOKINESIS, priority 2012, dated 2019).

In data set [1] the test system is human large lung carcinoma NCI-H460 xenografts. Briefly: Anti-tumor activity in nude mice bearing subcutaneous human large cell lung carcinoma NCI-H460 xenografts. It counts as in vivo. Here is the method:
In-Vivo Evaluation of Anti-Tumor Activity of Compound 38 in Nude Mice Bearing Subcutaneous Human Large Cell Lung Carcinoma NCI-11460 Xenografts Protocol:
The effects of one compound of the invention were studied on the tumor growth of human cancer cells in nude mice. The human large lung carcinoma NCI-H460 cell line was obtained from ATCC. The induction in nude mice was realized by subcutaneous injection in the right flank of each mouse with 5×10^6 NCI-H460 cells in 200 μl serum-free medium. When the tumor volume reached 80 mm^3, mice were randomized in 2 groups (10 mice/group).
Mice of group 1 were treated by intraperitoneal injection of vehicle (solutol HS15 at 38% in NaCl 0.9%) according to the treatment schedule 1Q1Dx17.
Mice of group 2 were treated by intraperitoneal injection of compound 38 (diluted in solutol HS15 at 38% in NaCl 0.9%) at 37.5 mg/kg according to the treatment schedule 1Q1Dx17.
The tumor volume was recorded twice a week until the end of the experiment.

Data set [2] deals with T1, Human recombinant MKlp2 motor domain1-519, His tagged (Homo sapiens, UniProt O95235).
T1 construct: Human recombinant MKlp2 motor domain1-519, His tagged; His; purchased Cytoskeleton MP05
T1 sequence (O95235 1-519): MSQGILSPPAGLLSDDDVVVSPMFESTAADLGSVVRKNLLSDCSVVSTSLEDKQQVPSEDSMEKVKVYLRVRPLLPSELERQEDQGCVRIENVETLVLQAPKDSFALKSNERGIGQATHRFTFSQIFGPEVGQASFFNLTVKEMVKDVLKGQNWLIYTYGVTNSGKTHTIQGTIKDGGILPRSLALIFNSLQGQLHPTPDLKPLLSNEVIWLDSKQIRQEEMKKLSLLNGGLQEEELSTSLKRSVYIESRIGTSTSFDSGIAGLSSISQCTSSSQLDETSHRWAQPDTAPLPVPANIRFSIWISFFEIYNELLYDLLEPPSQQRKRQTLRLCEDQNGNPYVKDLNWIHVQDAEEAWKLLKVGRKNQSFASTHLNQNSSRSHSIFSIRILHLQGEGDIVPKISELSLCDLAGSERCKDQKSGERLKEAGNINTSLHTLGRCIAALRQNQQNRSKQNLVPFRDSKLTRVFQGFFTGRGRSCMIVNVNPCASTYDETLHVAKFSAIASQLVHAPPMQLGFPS
Briefly: Microtubule stimulated ATPase activity of the MKlp2 motor domain (Kinesin ELIPA Assay Kit). The format is biochemical. As to conditions: Table 3, 22° C., read-out: MKIp2 IC50. The method, boiled down: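 Microtubule-stimulated ATPase at 22° C, with free phosphate followed in real time by MESG/PNP coupled absorbance at 360 nm. Motor mix in Pipes-NaOH pH 7.0, MgCl2, 30 μM Tx with porcine brain microtubules; reaction started with 5 mM ATP stock at 20% of volume. Kinetic read: 21 readings, 30 s apart.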

The subject of data set [3] is NCI-H460. Description: Cytotoxicity on human cancer cells (WST-1), NCI-H460. As to conditions: NCI-H460 lung cancer cells, WST-1 on D4, read-out: IC50 (μM) NCIH460. The format is cell-based. Here is the method:
(§1) Evaluation of Cytotoxicity Effects on Human Cancer Cells
(§2) The effects of the compounds of the invention on the viability of human cancer cells were studied on various human cancer cell lines of differing tissue origins (A549, NCI-H460: lung cancer; MDA-MB-231: breast cancer; HCT-116, HT-29: colon cancer; MIA-PaCa-2: pancreatic cancer; K562: leukaemia). All cell lines were obtained from ATCC or ECACC. Cells were cultured in the culture media described below, under a 37° C., 5% CO2 humidified atmosphere, according to a standard operating procedure.
NCI-H460: RPMI 1640+10% FBS+10 mM HEPES+1 mM Sodium pyruvate+2.5 g/l glucose
(§3) On D0, the cells were plated in 90 μl in 96 wells plates at densities ranging from 500 to 5,000 cells per well.
(§4) Following addition of the test substance the cells were protected from light. The solvents (DMSO and specific control solvent were added at the maximal concentration: 10 μl/well (3 wells/condition)).
(§5) On D4, the Cell Proliferation Reagent WST-1 was added to each well (10 μl/well), according to a standard operating procedure. The cells were then incubated for 30 min to 4 h at 37° C.-5% CO2. After these incubations, the 96-well plates were shaken thoroughly for 1 min with Multiskan® EX apparatus (Thermo Labsystems, France). The absorbence was measured at 450 nm, the reference wavelength being 620 nm. […]

Data set [4] concerns HCT-116. Description: Cytotoxicity on human cancer cells (WST-1), HCT-116. The conditions noted are these: HCT-116 colon cancer cells, WST-1 on D4. The format is cell-based. Here is the method:
as §1, §2
HCT-116: Mc Coy's 5a+10% FBS+0.5 mM Ultraglutamine
as §3, §4, §5

Data set [5] relates to human colon carcinoma HCT-116 xenografts. Briefly: Anti-tumor activity in nude mice bearing subcutaneous human colon carcinoma HCT-116 xenografts. The format is in vivo. Here is the method:
The effects of one compound of the invention were studied on the tumor growth of human cancer cells in nude mice. […] The induction in nude mice was realized by subcutaneous injection in the right flank of each mouse of 10×10^6 HCT-116 cells in 200 μl serum-free medium. When the tumor volume reached 130 mm^3, mice were randomized in to 3 groups (10 mice/group).
Mice of group 2 were treated by intraperitoneal injection of cisplatin (diluted in NaCl 0.9%) at 4 mg/kg according to the treatment schedule 1Q3Dx3.
The body weight and tumor volume of mice were recorded twice a week until the end of the experiment.

Data set [6] concerns MIA-PaCa-2. Description: Cytotoxicity on human cancer cells (WST-1), MIA-PaCa-2. The format is cell-based. The conditions noted are these: MIA-PaCa-2 pancreatic cancer cells, WST-1 on D4. Here is the method:
as §1, §2, §3, §4
(§6) On D4, the Cell Proliferation Reagent WST-1 was added to each well (10 μl/well), according to a standard operating procedure. The cells were then incubated for 30 min to 4 h at 37° C.-5% CO2. After these incubations, the 96-well plates were shaken thoroughly for 1 min with Multiskan® EX apparatus (Thermo Labsystems, France). The absorbence was measured at 450 nm, the reference wavelength being 620 nm. The analysis of the results was performed with the Ascent software 2.6 (Thermo Labsystems, France), Microsoft Excel 2003 and GraphPad Prism 4.03 softwares to give the concentration of the compounds that induces the death of 50% of the cells (IC50).

In data set [7] the test system is K562 cells. Briefly: Cytotoxicity on human cancer cells (WST-1), K562. It counts as cell-based. As to conditions: Table 4, K562 leukaemia cells, WST-1 on D4, read-out: K562 IC50. Summed up: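 Cancer cell lines plated at 500–5,000 cells/well, exposed to compound from D0 under light protection at 37 °C, 5% CO2. On D4, WST-1 added for 30 min to 4 h; absorbance at 450 nm (reference 620 nm). IC50 taken as concentration killing 50% of cells.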

Data set [8] has as its system MDA-MB-231. Description: Cytotoxicity on human cancer cells (WST-1), MDA-MB-231. The format is cell-based. The conditions noted are these: MDA-MB-231 breast cancer cells, WST-1 on D4. Here is the method:
as §1, §2, §3, §4, §6

Data set [9] has as its system HT-29. Description: Cytotoxicity on human cancer cells (WST-1), HT-29. The format is cell-based. The conditions noted are these: HT-29 colon cancer cells, WST-1 on D4. Here is the method:
as §1, §2
HT-29: Mc Coy's 5a+10% FBS+0.5 mM Ultraglutamine
as §3, §4, §5

Data set [10] concerns A549. Briefly: Cytotoxicity on human cancer cells (WST-1), A549. The format is cell-based. The conditions noted are these: A549 lung cancer cells, WST-1 on D4. Here is the method: as §1, §2, §3, §4, §5
[11] abbreviates: NCI-H460 xenograft nude mice, i.p. 37.5 mg/kg 1Q1Dx17, starting MBW 21 g.
Setting [12] is: HCT-116 xenograft nude mice, i.p., Cisplatin 4 mg/kg, Cpd 38 37.5 mg/kg, starting MBW 21 g.

As for `COc1ccc(C#N)cc1/C=C(\C#N)c1c[nH]c2ccc(Br)cc12` [Example 38, (Z)-3-(2-(5-bromo-1H-indol-3-yl)-2-cyanovinyl)-4-methoxybenzonitrile], the “Antitumor activity (tumor volume, FIG. 4)” value in [1] (NCI-H460 xenograft bearing nude mice, 37.5 mg/kg i.p.) is on record as “Antitumor activity was observed”. In [1] (setting [11]), the “MBWC D 0-D 3 (mean body weight change)” value is -0.96 g, the “MBWC D 0-D 4 (mean body weight change)” value was -1.76 g, the “MBWC D 0-D 7 (mean body weight change)” value is -1.82 g and the “MBWC D 0-D 10 (mean body weight change)” value was -2.12 g. In data set [1] (setting [11]), the “MBWC D 0-D 14 (mean body weight change)” value was -1.83 g and the “MBWC D 0-D 17 (mean body weight change)” value was -1.55 g. Further, the Tolerability of treatment result in [1] (nude mice bearing NCI-H460 xenograft, 37.5 mg/kg i.p.) is “well tolerated”. For the same compound, the IC50 in [2] amounted to 200 nM. The IC50 in data set [3] came to 0.04 µM. In data set [4], this compound displayed an IC50 of 0.06 µM. Moreover, the “Antitumor activity (tumor volume, FIG. 3)” value in data set [5] (HCT-116 xenograft bearing nude mice, i.p., cisplatin 4 mg/kg, compound 38 37.5 mg/kg) is recorded as “Antitumor activity was observed”. In [5] (setting [12]), the “MBWC D 0-D 4 (mean body weight change)” value is -1.04 g, the “MBWC D 0-D 7 (mean body weight change)” value was -0.76 g, the “MBWC D 0-D 10 (mean body weight change)” value was -1.08 g and the “MBWC D 0-D 14 (mean body weight change)” value is -1.57 g. In [5] (setting [12]), the “MBWC D 0-D 17 (mean body weight change)” value was -1.58 g, the “MBWC D 0-D 21 (mean body weight change)” value was -1.43 g, the “MBWC D 0-D 24 (mean body weight change)” value is -1.83 g and the “MBWC D 0-D 28 (mean body weight change)” value was -2.54 g. Also, the Tolerability of treatment entry in data set [5] (mouse, in vivo, ip, 37.5 mg/kg) is “well tolerated”. Moreover, the IC50 in data set [6] stood at 0.04 µM. The 50% inhibitory concentration (IC50) in data set [7] came out at 30 nM. In data set [8], the IC50 is 0.07 µM.
Take `CN(C)c1ccc(C#N)cc1/C=C(\C#N)c1c[nH]c2ccc(Br)cc12` [Example 39, (Z)-3-(2-(5-bromo-1H-indol-3-yl)-2-cyanovinyl)-4-(dimethylamino)benzonitrile]: the IC50 in [2] is 200 nM; in data set [6], 0.2 µM; in data set [9] it was 0.3 µM; in data set [7], 600 nM; in [8], 0.3 µM; in data set [10], 0.5 µM.
